Test results as given in patent publication US20120053123A1, “NATRIURETIC POLYPEPTIDES HAVING MUTATIONS WITHIN THEIR DISULFIDE RINGS” (priority 2009, published 2012).

How the values were obtained:
[1] = system: vascular smooth muscle cells; experiment: Proliferation of vascular smooth muscle cells in culture (BrdU); type: cell-based; conditions: 10^-5 M to 10^-8 M; for ABC-NP and ABC-NP1 all concentrations about the same effect, FIG. 21
From the text: FIG. 21 is a graph plotting levels of proliferation of vascular smooth muscle cells after treatment with 10^−5 M, 10^−6 M, 10^−7 M, or 10^−8 M ANP, BNP, CNP, ABC-NP, or ABC-NP1, measured by assessing bromodeoxyuridine (BrdU) levels.

[2] = after administration to a mammal; cited from earlier work
[3] = system: normal anesthetized dogs; experiment: Cardiorenal and humoral actions of intravenous bolus in normal anesthetized dogs; type: in vivo, dog; conditions: i.v. bolus 25 microgram/Kg; for reduction in right atrial pressure (RAP) / reduction in pulmonary capillary wedge pressure (PCWP): ABC-NP1 compared with ABC-NP; for reduction in right atrial pressure (RAP): FIG. 6; for reduction in pulmonary capillary wedge pressure (PCWP): FIG. 7; for urine flow (UV), diuresis: n=5, FIG. 3; for urinary sodium excretion (UNaV), natriuresis: n=5, FIG. 4; for mean arterial blood pressure (MAP): n=5, FIG. 5
Experimental: (§1) Cardiorenal and humoral actions of intravenous bolus administration of ABC-NP1 (n=5) and ABC-NP (n=5) at 25 microgram/Kg were evaluated in two separate groups of normal anesthetized dogs. The cGMP response of both peptides also was assessed in HAEC, HCF, and isolated canine glomeruli.

[4] = system: dogs with rapid ventricular pacing-induced overt heart failure with cardiorenal dysfunction; experiment: Cardiorenal and humoral actions of intravenous infusions in dogs with pacing-induced overt heart failure; type: in vivo, dog; conditions: for RAP: all doses (2, 10 and 100 pmol/kg/minute), FIG. 13; for MAP: FIG. 12; for PCWP: FIG. 14; for urinary sodium excretion (UNaV) / urine flow (UV): increasing doses 2, 10, 100 pmol/kg/minute; for glomerular filtration rate (GFR): FIG. 17; for renal blood flow: FIG. 18
Experimental: The cardiorenal and humoral actions of intravenous infusions of ABC-NP and ABC-NP1 at 2, 10, and 100 pmol/kg/minute were examined in seven dogs with rapid ventricular pacing-induced overt heart failure with cardiorenal dysfunction (240 bpm for 10 days). As shown in the study protocol depicted in FIG. 11, baseline values for MAP, RAP, PCWP, UNaV, UV, GFR, renal blood flow, urinary cGMP excretion, plasma and cGMP were measured, and animals were then infused with 2 pmol/kg/minute ABC-NP or ABC-NP1 for a lead in period of 15 minutes followed by 30 minutes, then infusion with 10 pmol/kg/minute ABC-NP or ABC-NP1 for a lead in period of 15 minutes followed by 30 minutes, and finally infusion with 100 pmol/kg/minute ABC-NP or ABC-NP1 for a lead in period of 15 minutes followed by 30 minutes, and washout for 30 minutes. Pressure measurements were taken at the end of each NP infusion period, and blood and urine samples also were collected for analysis.

[5] = system: isolated canine glomeruli; experiment: cGMP generation in isolated canine glomeruli; type: cell-based; conditions: comparison between the two peptides, FIG. 10
From the text: A NP as provided herein can function through one or more of the guanylyl cyclase receptors through which the native NPs function. For example, in some embodiments, a NP as provided herein can bind to and function through the NPR-A receptor through which ANP and BNP function. In some cases, a NP as provided herein can function through the NPR-B receptor through which CNP functions. Further, in some cases, a NP as provided herein can bind to and function through more than one guanylyl cyclase receptor, including NPR-A and NPR-B, for example. Methods for evaluating which receptor is involved in function of a particular NP are known in the art. For example, glomeruli, which contain both NPR-A and NPR-B, can be isolated (e.g., from a laboratory animal such as a dog) and incubated with a NP (e.g., a native, chimeric, or mutated NP), and cGMP levels can be measured. Glomeruli can be pretreated with antagonists of NPR-A or NPR-B to determine whether cGMP production stimulated by a NP through one or the other receptor can be attenuated.
as §1

[6] = system: human cardiac fibroblasts (HCF); experiment: cGMP generation in cultured human cardiac fibroblasts (HCF); type: cell-based; conditions: FIG. 8, p<0.05
From the text: (§2) Variant NPs having conservative and/or non-conservative substitutions (e.g., with respect to any of SEQ ID NOS:1 to 51), as well as fragments of any of SEQ ID NOS:1 to 51, fragments of variants of any of SEQ ID NOS:1 to 51, and polypeptides comprising any of SEQ ID NOS:1 to 51, variants or fragments of any of SEQ ID NOS:1 to 51, or fragments of variants of any of SEQ ID NOS:1 to 51, can be screened for biological activity using any of a number of assays, including those described herein. For example, the activity of a NP as described herein can be evaluated in vitro by testing its effect on cGMP production in cultured cells (e.g., cultured cardiac fibroblasts, aortic endothelial cells, or glomerular cells, as described in the Example herein). Cells can be exposed to a NP (e.g., 10^−9 to 10^−4 M NP), and samples can be assayed to evaluate the NP effects on cGMP generation. cGMP generation can be detected and measured using, for example, a competitive RIA cGMP kit (Perkin-Elmer, Boston, Mass.).
as §1

[7] = previously shown, cited from earlier work
[8] = system: human aortic endothelial cells (HAEC); experiment: cGMP generation in cultured human aortic endothelial cells (HAEC); type: cell-based; conditions: FIG. 9, p<0.05
From the text: as §2, §1

[9] = HF dogs, highest dose (100 pmol/kg/minute), FIG. 19
[10] = HF dogs, highest dose (100 pmol/kg/minute), FIG. 20
[11] = HF dogs, i.v. infusion, highest dose (100 pmol/kg/minute)
[12] = HF dogs, two highest doses (10 and 100 pmol/kg/minute)

| Compound | proliferation of vascular smooth muscle cells (BrdU levels) [1] | reduction in right atrial pressure (RAP) [3] | reduction in pulmonary capillary wedge pressure (PCWP) [3] | urine flow (UV), diuresis [3] | urinary sodium excretion (UNaV), natriuresis [3] | mean arterial blood pressure (MAP) [3] | urinary cGMP excretion [4, 9] | plasma cGMP [4, 10] | RAP ([4]; HF dogs, i.v. infusion) | urinary sodium excretion (UNaV) ([4]; HF dogs, FIG. 15) | urine flow (UV) ([4]; HF dogs, FIG. 16) | cGMP generation [5] | cGMP generation [6] | cGMP generation [8] | further results |
| --- | --- | --- | --- | --- | --- | --- | --- | --- | --- | --- | --- | --- | --- | --- | --- |
| CC[C@H](C)[C@@H]1NC(=O)[C@H](CCCNC(=N)N)NC(=O)[C@H](CC(=O)O)NC(=O)[C@H](CCSC)NC(=O)[C@H](CCCNC(=N)N)NC(=O)CNC(=O)CNC(=O)[C@H](Cc2ccccc2)NC(=O)[C@@H](NC(=O)[C@H](CO)NC(=O)[C@H](CO)NC(=O)[C@H](CCCNC(=N)N)NC(=O)[C@H](CCCNC(=N)N)NC(=O)[C@H](CC(C)C)NC(=O)[C@@H](N)CO)CSSC[C@@H](C(=O)N[C@@H](CC(N)=O)C(=O)N[C@@H](CO)C(=O)N[C@@H](Cc2ccccc2)C(=O)N[C@@H](CCCNC(=N)N)C(=O)N[C@@H](Cc2ccc(O)cc2)C(=O)O)NC(=O)CNC(=O)[C@H](CC(C)C)NC(=O)CNC(=O)[C@H](CO)NC(=O)[C@H](CCC(N)=O)NC(=O)[C@H](C)NC(=O)CNC1=O [ANP, atrial natriuretic peptide] | decreased as the concentration decreased | – | – | – | – | – | – | – | – | – | – | – | – | – | – |
| B-type natriuretic peptide [BNP] | decreased as the concentration decreased | – | – | – | – | – | – | – | – | – | – | – | – | – | – |
| C-type natriuretic peptide [CNP] | decreased as the concentration decreased | – | – | – | – | – | – | – | – | – | – | – | – | – | half-life [2]: about a minute and a half |
| RMDRIGLSKGCFGLKLDRIGSMSGLGCKVLRRH [ABC-NP1] | reduced proliferation | significantly greater | significantly greater | resulted in diuresis | natriuresis | significant decrease | significantly increased | significantly increased | significantly reduced | increasing effects | increasing effects | similar | significantly higher | significantly higher | effect on UNaV relative to ABC-NP ([4]; HF dogs, ABC-NP1 vs ABC-NP, FIG. 15): 5- to 6.5 fold; effect on UV relative to ABC-NP ([4]; HF dogs, ABC-NP1 vs ABC-NP, FIG. 16): 1.5- to 2 fold; effect on urinary cGMP excretion relative to ABC-NP ([4]; HF dogs, highest dose, ABC-NP1 vs ABC-NP, FIG. 19): about a two-fold greater effect; effect on plasma cGMP relative to ABC-NP ([4]; HF dogs, highest dose, ABC-NP1 vs ABC-NP, FIG. 20): about a two-fold greater effect; MAP [4, 11]: significantly reduced; PCWP [4, 11]: significantly reduced; glomerular filtration rate (GFR) [4, 12]: significant increases; renal blood flow [4, 12]: significant increases; renal excretory actions ([7]; result of N- and C-terminal alterations): potent renal excretory actions; cardiac actions ([7]; similar to CNP): cardiac unloading actions; hypotensive effects ([7]; similar to CNP): mild hypotensive effects |
| RMDRIGLSKGCFGLKLDRIREASGLGCKVLRRH [ABC-NP, ANP residues 11-15, mutated CNP in which GSM15-17 were changed to REA, and six C-terminal amino acids of BNP] | reduced proliferation | reduction | reduction | resulted in diuresis | natriuresis | no change | significantly increased | significantly increased | increased | increasing effects | increasing effects | similar | minimal | minimal | glomerular filtration rate (GFR) ([4]; HF dogs, 2, 10, 100 pmol/kg/minute, significant increase only at highest dose): significance was not achieved with ABC-NP until the highest dose was used; renal blood flow ([4]; HF dogs, 2, 10 and 100 pmol/kg/minute): no effect; MAP ([4]; HF dogs, i.v. infusion 2, 10 and 100 pmol/kg/minute): no effect; PCWP ([4]; HF dogs, i.v. infusion, higher doses (10 and 100 pmol/kg/minute)): did not affect; PCWP ([4]; HF dogs, i.v. infusion, lowest dose (2 pmol/kg/minute), vs baseline): reduced PCWP as compared to baseline |
